Assay results from patent publication US20220160650A1, “GEL, OINTMENT, AND FOAM FORMULATIONS OF TAPINAROF AND METHODS OF USE” (Dermavant Sciences GmbH, priority 2020, published 2022).

What was measured:
[1] = Purity of tapinarof in individual excipients on storage, related substances HPLC method; type: physicochemical
Procedure, shortened: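 The stability of the stilbene active ingredient was tested in individual excipients, one excipient per sample. Samples were analysed at time zero and after storage for up to 2 weeks. Purity of the active ingredient was determined by HPLC.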

[2] = Gao et al., Journal of Polymer Research 2011; cited from earlier work
[3] = Saturated solubility of tapinarof in individual excipients, by tapinarof assay HPLC or visually (Table 2); type: physicochemical; conditions: for Average saturated solubility of DMVT-505: visual solubility
Procedure, shortened: (§1)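 Values are the saturated solubility of the stilbene active ingredient in single pharmaceutical excipients, with one excipient tested per sample. Solubility was determined by an HPLC assay for the active ingredient or by visual inspection.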

[4] = Tapinarof saturated solubility in excipients (Table 1); type: physicochemical
Procedure, shortened: as §1

- Purity of DMVT-505 ([1]; in Almond oil, t = 0): 100.00 % area
- Purity of DMVT-505 ([1]; in Almond oil, t = 2 weeks, 40° C.): 99.96 % area
- Purity of DMVT-505 ([1]; in Almond oil, t = 2 weeks, 70° C.): 99.84 % area
- Purity of DMVT-505 ([1]; in Arlasolve DMI, t = 0): 99.55 % area
- Purity of DMVT-505 ([1]; in Arlasolve DMI, t = 2 weeks, 40° C.): 96.75 % area
- Purity of DMVT-505 ([1]; in Arlasolve DMI, t = 2 weeks, 70° C.): 95.14 % area
- Purity of DMVT-505 ([1]; in Castor oil, t = 0): 100.00 % area
- Purity of DMVT-505 ([1]; in Castor oil, t = 2 weeks, 40° C.): 100.00 % area
- Purity of DMVT-505 ([1]; in Castor oil, t = 2 weeks, 70° C.): 99.92 % area
- Purity of DMVT-505 ([1]; in Crodamol GTCC, t = 0): 99.92 % area
- Purity of DMVT-505 ([1]; in Crodamol GTCC, t = 2 weeks, 40° C.): 96.46 % area
- Purity of DMVT-505 ([1]; in Crodamol GTCC, t = 2 weeks, 70° C.): 96.94 % area
- Purity of DMVT-505 ([1]; in Diethyl sebacate, t = 0): 100.00 % area
- Purity of DMVT-505 ([1]; in Diethyl sebacate, t = 2 weeks, 40° C.): 96.72 % area
- Purity of DMVT-505 ([1]; in Diethyl sebacate, t = 2 weeks, 70° C.): 95.78 % area
- Purity of DMVT-505 ([1]; in Diisopropyl adipate, t = 0): 100.00 % area
- Purity of DMVT-505 ([1]; in Diisopropyl adipate, t = 2 weeks, 40° C.): 99.79 % area
- Purity of DMVT-505 ([1]; in Diisopropyl adipate, t = 2 weeks, 70° C.): 95.94 % area
- Purity of DMVT-505 ([1]; in Dipropylene glycol, t = 0): 99.97 % area
- Purity of DMVT-505 ([1]; in Dipropylene glycol, t = 2 weeks, 40° C.): 99.83 % area
- Purity of DMVT-505 ([1]; in Dipropylene glycol, t = 2 weeks, 70° C.): 98.89 % area
- Purity of DMVT-505 ([1]; in Ethanol, t = 0): 99.89 % area
- Purity of DMVT-505 ([1]; in Ethanol, t = 2 weeks, 40° C.): 99.72 % area
- Purity of DMVT-505 ([1]; in Ethanol, t = 2 weeks, 70° C.): 98.57 % area
- Purity of DMVT-505 ([1]; in Hexylene glycol, t = 0): 99.96 % area
- Purity of DMVT-505 ([1]; in Hexylene glycol, t = 2 weeks, 40° C.): 99.54 % area
- Purity of DMVT-505 ([1]; in Hexylene glycol, t = 2 weeks, 70° C.): 98.76 % area
- Purity of DMVT-505 ([1]; in IPA, t = 0): 99.91 % area
- Purity of DMVT-505 ([1]; in IPA, t = 2 weeks, 40° C.): 99.86 % area
- Purity of DMVT-505 ([1]; in IPA, t = 2 weeks, 70° C.): 99.25 % area
- Purity of DMVT-505 ([1]; in IPM, t = 0): 100.00 % area
- Purity of DMVT-505 ([1]; in IPM, t = 2 weeks, 40° C.): 99.32 % area
- Purity of DMVT-505 ([1]; in IPM, t = 2 weeks, 70° C.): 92.15 % area
- Purity of DMVT-505 ([1]; in IPP, t = 0): 100.00 % area
- Purity of DMVT-505 ([1]; in IPP, t = 2 weeks, 40° C.): 99.30 % area
- Purity of DMVT-505 ([1]; in IPP, t = 2 weeks, 70° C.): 99.52 % area
- Purity of DMVT-505 ([1]; in Jojoba oil, t = 0): 99.97 % area
- Purity of DMVT-505 ([1]; in Jojoba oil, t = 2 weeks, 40° C.): 98.98 % area
- Purity of DMVT-505 ([1]; in Jojoba oil, t = 2 weeks, 70° C.): 99.09 % area
- Purity of DMVT-505 ([1]; in Kollicream ® 3C, t = 0): 100.00 % area
- Purity of DMVT-505 ([1]; in Kollicream ® 3C, t = 2 weeks, 40° C.): 98.98 % area
- Purity of DMVT-505 ([1]; in Kollicream ® 3C, t = 2 weeks, 70° C.): 96.51 % area
- Purity of DMVT-505 ([1]; in Kollicream ® OA, t = 0): 100.00 % area
- Purity of DMVT-505 ([1]; in Kollicream ® OA, t = 2 weeks, 40° C.): 99.66 % area
- Purity of DMVT-505 ([1]; in Kollicream ® OA, t = 2 weeks, 70° C.): 99.46 % area
- Purity of DMVT-505 ([1]; in Kollicream ® OD, t = 0): 100.00 % area
- Purity of DMVT-505 ([1]; in Kollicream ® OD, t = 2 weeks, 40° C.): 99.38 % area
- Purity of DMVT-505 ([1]; in Kollicream ® OD, t = 2 weeks, 70° C.): 98.11 % area
- Purity of DMVT-505 ([1]; in MethoxyPEG 350, t = 0): 99.59 % area
- Purity of DMVT-505 ([1]; in MethoxyPEG 350, t = 2 weeks, 40° C.): 98.42 % area
- Purity of DMVT-505 ([1]; in MethoxyPEG 350, t = 2 weeks, 70° C.): 95.50 % area
- Purity of DMVT-505 ([1]; in Olive oil, t = 0): 100.00 % area
- Purity of DMVT-505 ([1]; in Olive oil, t = 2 weeks, 40° C.): 99.91 % area
- Purity of DMVT-505 ([1]; in Olive oil, t = 2 weeks, 70° C.): 99.74 % area
- Purity of DMVT-505 ([1]; in PEG 200, t = 0): 99.91 % area
- Purity of DMVT-505 ([1]; in PEG 200, t = 2 weeks, 40° C.): 99.86 % area
- Purity of DMVT-505 ([1]; in PEG 200, t = 2 weeks, 70° C.): 98.56 % area
- Purity of DMVT-505 ([1]; in PEG 400, t = 0): 99.87 % area
- Purity of DMVT-505 ([1]; in PEG 400, t = 2 weeks, 40° C.): 99.30 % area
- Purity of DMVT-505 ([1]; in PEG 400, t = 2 weeks, 70° C.): 98.63 % area
- Purity of DMVT-505 ([1]; in Propylene glycol, t = 0): 99.90 % area
- Purity of DMVT-505 ([1]; in Propylene glycol, t = 2 weeks, 40° C.): 99.51 % area
- Purity of DMVT-505 ([1]; in Propylene glycol, t = 2 weeks, 70° C.): 99.23 % area
- Purity of DMVT-505 ([1]; in Sesame oil, t = 0): 100.00 % area
- Purity of DMVT-505 ([1]; in Sesame oil, t = 2 weeks, 40° C.): 99.94 % area
- Purity of DMVT-505 ([1]; in Sesame oil, t = 2 weeks, 70° C.): 99.67 % area
- Purity of DMVT-505 ([1]; in Sorbitan monooleate (Span 80), t = 0): 100.00 % area
- Purity of DMVT-505 ([1]; in Sorbitan monooleate (Span 80), t = 2 weeks, 40° C.): 100.00 % area
- Purity of DMVT-505 ([1]; in Sorbitan monooleate (Span 80), t = 2 weeks, 70° C.): 99.79 % area
- Purity of DMVT-505 ([1]; in Sunflower oil, t = 0): 100.00 % area
- Purity of DMVT-505 ([1]; in Sunflower oil, t = 2 weeks, 40° C.): 100.00 % area
- Purity of DMVT-505 ([1]; in Sunflower oil, t = 2 weeks, 70° C.): 99.51 % area
- Average saturated solubility of DMVT-505 (mean of n = 3) ([3]; in Almond oil): 11.94 % w/w
- Average saturated solubility of DMVT-505 (mean of n = 3) ([3]; in Aloe vera juice): 0.01 % w/w
- Average saturated solubility of DMVT-505 (mean of n = 3) ([3]; in Castor oil): 7.06 % w/w
- Average saturated solubility of DMVT-505 ([3]; in Dipropylene glycol): ≥20 (visual solubility) % w/w
- Average saturated solubility of DMVT-505 ([3]; in Ethanol): ≥20 (visual solubility) % w/w
- Average saturated solubility of DMVT-505 ([3]; in Isopropyl myristate): ≥20 (visual solubility) % w/w
- Average saturated solubility of DMVT-505 (mean of n = 3) ([3]; in Jojoba oil): 8.19 % w/w
- Average saturated solubility of DMVT-505 (mean of n = 3) ([3]; in Kollicream ® 3C (cocoyl caprylocaprate)): 19.03 % w/w
- Average saturated solubility of DMVT-505 (mean of n = 3) ([3]; in Kollicream ® OA (oleyl alcohol)): 15.82 % w/w
- Average saturated solubility of DMVT-505 (mean of n = 3) ([3]; in Kollicream ® OD (octyldodecanol)): 11.03 % w/w
- Average saturated solubility of DMVT-505 ([3]; in MethoxyPEG 350): ≥20 (visual solubility) % w/w
- Average saturated solubility of DMVT-505 (mean of n = 3) ([3]; in Olive oil): 11.35 % w/w
- Average saturated solubility of DMVT-505 ([3]; in PEG 200): ≥20% (visual solubility) % w/w
- Average saturated solubility of DMVT-505 (mean of n = 3) ([3]; in Safflower oil): 11.68 % w/w
- Average saturated solubility of DMVT-505 (mean of n = 3) ([3]; in Sesame oil): 11.56 % w/w
- Average saturated solubility of DMVT-505 (mean of n = 3) ([3]; in Soyabean oil): 11.68 % w/w
- Average saturated solubility of DMVT-505 (mean of n = 3) ([3]; in Sunflower oil): 12.05 % w/w
- Average saturated solubility of DMVT-505 (mean of n = 3) ([3]; in Walnut oil): 12.43 % w/w
- Solubility (tapinarof saturated solubility) ([4]; in Benzyl alcohol): 193 mg/g
- Solubility (tapinarof saturated solubility) ([4]; in Diethyl sebacate): 488 mg/g
- Solubility (tapinarof saturated solubility) ([4]; in Diisopropyl adipate): 187 mg/g
- Solubility (tapinarof saturated solubility) ([4]; in Dimethyl isosorbide): 496 mg/g
- Solubility (tapinarof saturated solubility) ([4]; in Glycerol): 14 mg/g
- Solubility (tapinarof saturated solubility) ([4]; in Hexylene glycol): 386 mg/g
- Solubility (tapinarof saturated solubility) ([4]; in Isopropyl alcohol): 485 mg/g
- Solubility (tapinarof saturated solubility) ([4]; in Isopropyl palmitate): 231 mg/g
- Solubility (tapinarof saturated solubility) ([4]; in Medium chain triglycerides): 273 mg/g
- Solubility (tapinarof saturated solubility) ([4]; in Mineral oil): 0.26 mg/g
- Solubility (tapinarof saturated solubility) ([4]; in Phenoxyethanol): 381 mg/g
- Solubility (tapinarof saturated solubility) ([4]; in Polyethylene glycol 400): 373 mg/g
- Solubility (tapinarof saturated solubility) ([4]; in Polysorbate 80): 263 mg/g
- Solubility (tapinarof saturated solubility) ([4]; in Propylene carbonate): 506 mg/g
- Solubility (tapinarof saturated solubility) ([4]; in Propylene glycol): 444 mg/g
- Solubility (tapinarof saturated solubility) ([4]; in Sorbitan oleate): 137 mg/g
- Solubility (tapinarof saturated solubility) ([4]; in Water): 0.14 mg/g
- Solubility (tapinarof saturated solubility) ([4]; in diethylene glycol monoethyl ether (DEGEE)): 526 mg/g
Compound: CC(C)c1c(O)cc(/C=C/c2ccccc2)cc1O [tapinarof, 3,5-Dihydroxy-4-isopropyl-trans-stilbene]
- Sensitivity to oxidation and photo degradation [2]: sensitive to oxidation and photo degradation
